Test results: patent US5795891A, “Acylphenylglycine derivative and preventive and remedy for diseases caused by increased collagenase activity containing said compound as active ingredient” (Kanebo Ltd., priority 1993, dated 1998)
Counter-ions that a name gives are not always drawn.

Tests used:
[1] = tested on: collagenase; test: Collagenase activity inhibition rate in blood after oral administration (in mice); format: in vivo; settings: 30 mg/kg p.o.; for Collagenase Inhibition rates in blood after oral administration, After 2 hours: after 2 hours (as printed in head; text says 3 hours)
Protocol: (§1) Test compounds were suspended in 0.5% CMC and orally administered to three mice per group (the dose of the test compound, 30 mg/kg), and after a certain period of time, the blood was collected in the presence of heparin and ice-cooled. Plasma was obtained by centrifugation of this blood at 10,000 rpm for 5 minutes at 4° C. To 400 μl of this plasma was added to 600 μl of distilled water, and heated at 100° C. for 10 minutes. After cooling, the mixture was centrifuged at 10,000 rpm for 5 minutes and filtered using a micro-volume ultrafiltration unit (Molcut II, Millipore) to provide a sample (A) for use in collagenase activity measurement. Using this sample, collagenase activity inhibition rate in blood was determined by the following method.
(§2) The sample (A) above was mixed with a known amount of collagenase (the collagenase used was prepared by the method described in JP-A-3-103178) dissolved in a buffer for measurement (50 mM Tris-HCl buffer, pH 7.5, containing 0.2M sodium chloride, 5 mM calcium chloride, 0.05% Brij-35 and 0.02% sodium azide,), and collagenase activity A was measured according to the method of Nagai et al. (Japanese Journal of Inflammation, 4, 123 (1984)) using a fluorescein isothiocyanate-labeled type-I collagen as a substrate. […] Inhibition rate was determined from the following equation:
(§3) Inhibition rate (%)=(1-A/B)×100

[2] = tested on: adjuvant arthritis; test: Adjuvant arthritis model: hind paw volume (swelling of adjuvant-uninjected hind paw); format: in vivo, male Lewis rats; settings: 100 mg/kg at 12-hour intervals for 20 days; FIG. 1; t-test vs control
Protocol: (§4) 8-week old male Lewis rats (Charles River Japan, K.K.) were divided into 4 groups (normal control group, control group, and two test compound groups) of 7 animals each. Each of the rats of the control group and the test compound groups were intra-dermally injected with 0.6 mg of heat-killed M. butyricum in 0.1 ml of liquid paraffin suspension in their right hind paw to induce adjuvant arthritis. The test compounds were suspended in 0.5% CMC, and administered to the rats of the test compound group at a dose of 100 mg/kg per administration immediately after the injection of adjuvant and at 12-hour intervals thereafter over a period of 20 days. The rats of the control group received 0.5% CMC immediately after the injection of adjuvant and at 12-hour intervals thereafter over a period of 20 days. The rats of the normal control group were not injected with adjuvant but only administered 0.5% CMC analogously to the administration of the test compounds.
The volume of the hind paw was measured immediately before and on days 3, 7, 10, 14, 17 and 20 after the injection of adjuvant using a foot volume measuring apparatus. Analysis was made using t-test for superiority of the test compound group over the control group.
In the figure, lines n, c, y and d indicate the volume of the hind paw for the following groups, respectively: […]

[3] = tested on: adjuvant arthritis; test: Adjuvant arthritis model: erythrocyte sedimentation rates; format: in vivo, male Lewis rats; settings: 100 mg/kg at 12-hour intervals for 20 days; for effect on increase in erythrocyte sedimentation rates (in words): vs control; for Erythrocyte sedimentation rates: day 21, control 33 ± 2, normal 1 ± 0.1, ** P < 0.01 vs control (Compound D)
Protocol: as §4
The blood was fully removed on day 21 and used as a sample. Erythrocyte sedimentation measuring apparatus (Matsuyoshi's Erythrocyte Sedimentation rack) was used for the measurement, and statistical analysis was made according to the Dunnett's method for the superiority of the test compound group over the control group.

[4] = tested on: adjuvant arthritis; test: Adjuvant arthritis model: serum calcium concentration; format: in vivo, male Lewis rats; settings: 100 mg/kg at 12-hour intervals for 20 days; for effect on increase in serum calcium concentration (in words): vs control; for Serum calcium conc.: day 21, control 9.5 ± 0.1, normal 8.6 ± 0.1, ** P < 0.01 vs control (Compound D)
Protocol: as §4
Measurement was carried out on the same sample as above 2) using Calcium TestWAKO (Wako Junyaku), and statistical analysis was made according to the Dunnett's method for the superiority of the test compound group over the control group.

[5] = tested on: adjuvant arthritis; test: Adjuvant arthritis model: urinary hydroxyproline excretion; format: in vivo, male Lewis rats; settings: for Urinary hydroxyproline excretion (ratio to creatinine): after day 20, 100 mg/kg at 12-hour intervals, control 94.3 ± 1.8, normal 71.8 ± 2.6
Protocol: as §4
(§5) After the last administration of the test compounds on day 20, the rats were transferred into metabolic cages, and urine samples were collected overnight without supply of food or water. Urine volume and the amounts of creatinine and hydroxyproline were determined by the following method, and urinary hydroxyproline excretion expressed in the ratio to creatinine. Statistical analysis was made according to the Tukey's method for the superiority of test compound group over the control group. Determination of creatinine was carried out using Creatinine TestWAKO (Wako Junyaku). Hydroxyproline was determined by first hydrolyzing the urine with 6N hydrochloric acid, then isolation on high performance liquid chromatograph equipped with ion-exchange column (Hitachi Gel #2619), reaction with O-phthalaldehyde to form a hydroxyproline derivative, and measurement on a fluorophotometer.

[6] = tested on: bone resorption; test: Test for inhibition of bone resorption: urine hydroxyproline/creatinine ratio in rats on calcium-deficient food; format: in vivo, male Wister rats; settings: for effect on increase in urine hydroxyproline/creatinine ratio (in words): 100 mg/kg p.o., vs control; for Urinary hydroxyproline excretion (ratio to creatinine): single 100 mg/kg p.o., urine 16 hours, control 174 ± 7, normal 134 ± 7, * P < 0.05 vs control (Compound D)
Protocol: Furthermore, an investigation of its suppressive effect was carried out on bone resorption by administering the compound of the present invention to rats kept on a calcium-deficient food and using the urinary hydroxyproline excretion (ratio to creatinine) as an index.
as §5
6-week old male Wister rats (SLC Japan) were kept on a calcium-deficient food (Oriental Yeast, 0.0105-0.012% calcium, 0.62% phosphorus), orally administered 100 mg/kg of compound D or Y in a 0.5% CMC suspension on day 6 and, immediately thereafter, urine was collected for 16 hours under the condition of fasting with free access to water. The urine volume and urinary hydroxyproline and creatinirie content were measured by the method described in Example 3, and the urine hydroxyproline/creatinie ratio was calculated. Statistical analysis was made using the Tukey's method for the superiority of the test compound group over the control group.

[7] = set-up: species or system mice; settings: mouse, in vivo, 3000 mg/kg
[8] = tested on: collagenase; test: Activity in the living body / absorbability (general statements); settings: in vivo
[9] = tested on: collagenase; test: Collagenase activity inhibition rate in blood after oral administration (in rats); format: in vivo; settings: 100 mg/kg p.o.
Protocol: as §1, §2, §3
The same procedure as Test Example 1 was followed except that mice were replaced with rats (3 rats/group) and the dose of the tested compounds selected to be 100 mg/kg.

CNC(=O)C(NC(=O)C(CC(C)C)C(C)C(=O)NO)c1ccccc1 (single isomer, unassigned) [Compound D]
Collagenase Inhibition rates in blood after oral administration, After 1 hour [1]: 87% | Collagenase Inhibition rates in blood after oral administration, After 2 hours [1]: 76% | swelling (volume increase) of the adjuvant-uninjected hind paw [2]: suppressed the swelling (volume increase) of the adjuvant-uninjected hind paw | effect on increase in erythrocyte sedimentation rates (in words) [3]: significantly suppressed the increase in erythrocyte sedimentation rates | Erythrocyte sedimentation rates [3]: 20 ± 2 | effect on increase in serum calcium concentration (in words) [4]: significantly suppressed the increase in serum calcium concentration | Serum calcium conc. [4]: 8.9 ± 0.1 mg/dL | effect on increase in urinary hydroxyproline excretion (in words) ([5]; 100 mg/kg at 12-hour intervals for 20 days): tended to suppress the increase in urinary hydroxyproline excretion | Urinary hydroxyproline excretion (ratio to creatinine) [5]: 78.4 ± 6.1 μg/mg creatinine | effect on increase in urine hydroxyproline/creatinine ratio (in words) [6]: exhibited a significant suppression from the level of the control group | Urinary hydroxyproline excretion (ratio to creatinine) [6]: 144 ± 5 μg/mg creatinine | death after oral administration [7]: no death was observed | activity in the living body (in words) [8]: exhibits an excellent activity in the living body

CNC(=O)C(NC(=O)C(CC(=O)NO)CC(C)C)c1ccccc1 [Compound A, [4-(N-hydroxyamino)-2(R)-isobutylsuccinyl]-L-phenylglycine-N-methylamide]
Collagenase Inhibition rates in blood after oral administration, After 1 hour [1]: 88% | Collagenase Inhibition rates in blood after oral administration, After 2 hours [1]: 83% | Collagenase Inhibition rates in blood after oral administration, After 1 hr. [9]: 100% | Collagenase Inhibition rates in blood after oral administration, After 3 hrs. [9]: 91% | Collagenase Inhibition rates in blood after oral administration, After 6 hrs. [9]: 64%

CNC(=O)C(NC(=O)C(CC(=O)NO)CC(C)C)c1ccc(O)cc1 [Compound B, [4-(N-hydroxyamino)-2(R)-isobutylsuccinyl]-L-(p-hydroxyphenyl)glycine-N-methylamide]
Collagenase Inhibition rates in blood after oral administration, After 1 hour [1]: 84% | Collagenase Inhibition rates in blood after oral administration, After 2 hours [1]: 62%

CNC(=O)C(NC(=O)C(CC(C)C)C(CN1CCOCC1)C(=O)NO)c1ccccc1 [Compound C, [4-(N-hydroxyamino)-2(R)-isobutyl-3-(morpholinomethyl)succinyl]-L-phenylglycine-N-methylamide hydrochloride]
Collagenase Inhibition rates in blood after oral administration, After 1 hour [1]: 75% | Collagenase Inhibition rates in blood after oral administration, After 2 hours [1]: 64%

CNCC(C(=O)NO)C(CC(C)C)C(=O)NC(C(=O)NC)c1ccccc1 [Compound E, [4-(N-hydroxyamino)-2(R)-isobutyl-3-(methylaminomethyl)succinyl]-L-phenylglycine-N-methylamide]
Collagenase Inhibition rates in blood after oral administration, After 1 hour [1]: 82% | Collagenase Inhibition rates in blood after oral administration, After 2 hours [1]: 61%

CCNC(=O)C(NC(=O)C(CC(=O)NO)CC(C)C)c1ccccc1 [Compound F, [4-(N-hydroxyamino)-2(R)-isobutylsuccinyl]-L-phenylglycine-N-ethylamide]
Collagenase Inhibition rates in blood after oral administration, After 1 hour [1]: 89% | Collagenase Inhibition rates in blood after oral administration, After 2 hours [1]: 53%

CNC(=O)C(NC(=O)C(CC(=O)NO)CC(C)C)c1ccc(F)cc1 [Compound G, [4-(N-hydroxyamino)-2(R)-isobutylsuccinyl]-L-(p-fluorophenyl)glycine-N-methylamide]
Collagenase Inhibition rates in blood after oral administration, After 1 hour [1]: 83% | Collagenase Inhibition rates in blood after oral administration, After 2 hours [1]: 64%

CNC(=O)C(NC(=O)C(CC(=O)NO)CC(C)C)c1ccc(C(C)C)cc1 [Compound H, [4-(N-hydroxyamino)-2(R)-isobutylsuccinyl]-L-(p-isopropylphenyl)glycine-N-methylamide]
Collagenase Inhibition rates in blood after oral administration, After 1 hour [1]: 74% | Collagenase Inhibition rates in blood after oral administration, After 2 hours [1]: 63%

CNC(=O)[C@H](Cc1ccc(OC)cc1)NC(=O)[C@@H](CC(=O)NO)CC(C)C [Known compound X, [4-(N-hydroxyamino)-2(R)-isobutylsuccinyl]-L-O-methyltyrosine-N-methylamide, reference compound]
Collagenase Inhibition rates in blood after oral administration, After 1 hour [1]: 60% | Collagenase Inhibition rates in blood after oral administration, After 2 hours [1]: 43% | Collagenase Inhibition rates in blood after oral administration, After 1 hr. [9]: 45% | Collagenase Inhibition rates in blood after oral administration, After 3 hrs. [9]: 44% | Collagenase Inhibition rates in blood after oral administration, After 6 hrs. [9]: 33%

CNC(=O)[C@H](Cc1ccccc1)NC(=O)[C@H](CC(C)C)[C@H](CSc1cccs1)C(=O)NO [Known compound Y, [4-(N-hydroxyamino)-2(R)-isobutyl-3(S)-(2-thienyl)thiomethylsuccinyl]-L-phenylalanine-N-methylamide, reference compound]
Collagenase Inhibition rates in blood after oral administration, After 1 hour [1]: 14% | Collagenase Inhibition rates in blood after oral administration, After 2 hours [1]: 21% | effect on increase in erythrocyte sedimentation rates (in words) [3]: no such effect was noted | Erythrocyte sedimentation rates [3]: 30 ± 3 | effect on increase in serum calcium concentration (in words) [4]: no such effect was noted | Serum calcium conc. [4]: 9.6 ± 0.1 mg/dL | Urinary hydroxyproline excretion (ratio to creatinine) [5]: 107.1 ± 6.5 μg/mg creatinine | effect on increase in urine hydroxyproline/creatinine ratio (in words) [6]: hardly suppressed this increase | Urinary hydroxyproline excretion (ratio to creatinine) [6]: 161 ± 3 μg/mg creatinine

CNC(=O)[C@H](Cc1c[nH]c2ccccc12)NC(=O)[C@@H](CC(=O)NO)CC(C)C [Known compound Z, [4-(N-hydroxyamino)-2(R)-isobutylsuccinyl]-L-tryptophan-N-methylamide, reference compound]
Collagenase Inhibition rates in blood after oral administration, After 1 hour [1]: 58% | Collagenase Inhibition rates in blood after oral administration, After 2 hours [1]: 51%
